Experimental data published in ChEMBL document CHEMBL1201862, “PubChem BioAssay data set” (2004).
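Test compounds were applied to cells in 96-well plates for 48 hours at 5 doses. Abbreviation: GI50, concentration required for 50% inhibition of growth.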 Activity calls are given as the source filed them. Cut-off read from the data, not from the text of the source: active = GI50 up to about 1.1 µM and inactive = higher.

How the values were obtained:
Assay in all cases: DTP human tumour cell line panel, 48 h
[1] = test system: SK-OV-3
[2] = test system: PC-3
[3] = test system: COLO 205
[4] = test system: SF-539
[5] = test system: Malme-3M
[6] = test system: SW-620
[7] = test system: U-251
[8] = test system: MDA-MB-435
[9] = test system: MDA-N
[10] = test system: ACHN
[11] = test system: UACC-257
[12] = test system: NCI-H23
[13] = test system: A498
[14] = test system: M14
[15] = test system: MDA-MB-231
[16] = test system: HCT-116
[17] = test system: HCT-15
[18] = test system: UACC-62
[19] = test system: HL-60
[20] = test system: LXFL 529

CCCCC(=O)OC[n+]1ccc2c(C)c3[nH]c4ccccc4c3c(C)c2c1
GI50 [1]: 0.74 µM (active)
GI50 [2]: 0.298 µM (active)
GI50 [3]: 0.535 µM (active)
GI50 [4]: 0.526 µM (active)
GI50 [5]: 1.46 µM (inactive)
GI50 [6]: 0.359 µM (active)
GI50 [7]: 0.574 µM (active)
GI50 [8]: 0.618 µM (active)
GI50 [9]: 0.484 µM (active)
GI50 [10]: 0.187 µM (active)
GI50 [11]: 1.43 µM (inactive)
GI50 [12]: 0.14 µM (active)
GI50 [13]: 0.681 µM (active)
GI50 [14]: 1.34 µM (inactive)
GI50 [15]: 0.174 µM (active)
GI50 [16]: 0.221 µM (active)
GI50 [17]: 0.222 µM
GI50 [18]: 1.26 µM (inactive)
GI50 [19]: 0.378 µM (active)
GI50 [20]: 0.855 µM (active)

O=C1OC(O)c2cc3c(cc21)OCO3 (stereo not drawn)
GI50 [1]: > 100 µM (inactive)
GI50 [3]: > 100 µM (inactive)
GI50 [4]: > 100 µM (inactive)
GI50 [5]: > 100 µM (inactive)
GI50 [6]: > 100 µM (inactive)
GI50 [7]: > 100 µM (inactive)
GI50 [11]: > 100 µM (inactive)
GI50 [12]: > 100 µM (inactive)
GI50 [13]: > 100 µM (inactive)
GI50 [14]: > 100 µM (inactive)
GI50 [16]: > 100 µM (inactive)
GI50 [17]: > 100 µM
GI50 [18]: > 100 µM (inactive)
GI50 [19]: > 100 µM (inactive)
GI50 [20]: > 100 µM (inactive)

CCOC(=O)c1cc2c3c(c(O)c(OC)c2s1)N(C(=O)c1cc2c4c(c(O)c(OC)c2s1)N(C(C)=O)CC4)CC3
GI50 [1]: 22 µM (inactive)
GI50 [3]: > 100 µM (inactive)
GI50 [4]: 38.5 µM (inactive)
GI50 [5]: 77.8 µM (inactive)
GI50 [6]: > 100 µM (inactive)
GI50 [7]: 63.8 µM (inactive)
GI50 [10]: 77.3 µM (inactive)
GI50 [11]: > 100 µM (inactive)
GI50 [12]: > 100 µM (inactive)
GI50 [13]: 31.2 µM (inactive)
GI50 [14]: 46.5 µM (inactive)
GI50 [16]: > 100 µM (inactive)
GI50 [18]: 98.6 µM (inactive)
GI50 [19]: 28.2 µM (inactive)
GI50 [20]: 93.3 µM (inactive)

COc1cc(CC(=O)c2cc3c(cc2-c2ccccc2)OCO3)cc(OC)c1OC
GI50 [1]: 49.3 µM (inactive)
GI50 [3]: 56.4 µM (inactive)
GI50 [4]: 17.5 µM (inactive)
GI50 [5]: 16.9 µM (inactive)
GI50 [6]: 43.4 µM (inactive)
GI50 [7]: 71.6 µM (inactive)
GI50 [10]: 6.95 µM (inactive)
GI50 [11]: 23.4 µM (inactive)
GI50 [12]: 22.9 µM (inactive)
GI50 [13]: 33.3 µM (inactive)
GI50 [14]: 45.9 µM (inactive)
GI50 [16]: 43.9 µM (inactive)
GI50 [17]: 66.5 µM
GI50 [19]: 11.1 µM (inactive)
GI50 [20]: 9.38 µM (inactive)

COc1cccc2c1C(=O)c1c(O)c3c(c(O)c1C2=O)C[C@@](O)(C(C)=O)C[C@@H]3OC1OC(C)C(O)C(N)C1Br (stereo partly drawn)
GI50 [1]: 0.045 µM (active)
GI50 [2]: 0.138 µM (active)
GI50 [3]: 0.418 µM (active)
GI50 [4]: 0.0583 µM (active)
GI50 [5]: 0.0769 µM (active)
GI50 [6]: 0.0177 µM (active)
GI50 [7]: 0.0295 µM (active)
GI50 [8]: 0.22 µM (active)
GI50 [9]: 0.208 µM (active)
GI50 [10]: 0.0213 µM (active)
GI50 [11]: 0.155 µM (active)
GI50 [12]: 0.027 µM (active)
GI50 [13]: 0.133 µM (active)
GI50 [14]: 0.0681 µM (active)
GI50 [15]: 0.233 µM (active)
GI50 [16]: 0.00792 µM (active)
GI50 [17]: 0.132 µM
GI50 [18]: 0.105 µM (active)
GI50 [19]: 0.00971 µM (active)
GI50 [20]: 0.0601 µM (active)

Cc1c(C(=O)/C=C/C=C/c2ccccc2)[n+]([O-])c2ccccc2[n+]1[O-]
GI50 [1]: 40.5 µM (inactive)
GI50 [3]: 35 µM (inactive)
GI50 [4]: 40 µM (inactive)
GI50 [5]: 28.9 µM (inactive)
GI50 [6]: 22.4 µM (inactive)
GI50 [7]: 33.7 µM (inactive)
GI50 [10]: 25.7 µM (inactive)
GI50 [11]: 28.2 µM (inactive)
GI50 [12]: 17.5 µM (inactive)
GI50 [13]: 51.8 µM (inactive)
GI50 [14]: 19.8 µM (inactive)
GI50 [17]: 15.2 µM
GI50 [18]: 16 µM (inactive)
GI50 [19]: 26.1 µM (inactive)
GI50 [20]: 18 µM (inactive)

Nc1nc2c3nc(Nc4ccccc4)sc3nc(=S)n2c2sc(Nc3ccccc3)nc12
GI50 [1]: > 100 µM (inactive)
GI50 [3]: > 100 µM (inactive)
GI50 [4]: > 100 µM (inactive)
GI50 [5]: 47.4 µM (inactive)
GI50 [6]: > 100 µM (inactive)
GI50 [7]: 15.5 µM (inactive)
GI50 [10]: > 100 µM (inactive)
GI50 [11]: > 100 µM (inactive)
GI50 [12]: > 100 µM (inactive)
GI50 [13]: > 100 µM (inactive)
GI50 [14]: > 100 µM (inactive)
GI50 [16]: > 100 µM (inactive)
GI50 [17]: > 100 µM
GI50 [18]: 46.7 µM (inactive)
GI50 [19]: > 100 µM (inactive)
GI50 [20]: 4.18 µM (inactive)

CCCCC(C(=O)C(=O)Nc1ccccc1CC)C(=O)C(C)C (stereo not drawn)
GI50 [1]: > 100 µM (inactive)
GI50 [3]: > 100 µM (inactive)
GI50 [4]: > 100 µM (inactive)
GI50 [5]: > 100 µM (inactive)
GI50 [6]: > 100 µM (inactive)
GI50 [7]: > 100 µM (inactive)
GI50 [10]: > 100 µM (inactive)
GI50 [11]: > 100 µM (inactive)
GI50 [12]: > 100 µM (inactive)
GI50 [13]: > 100 µM (inactive)
GI50 [14]: > 100 µM (inactive)
GI50 [16]: > 100 µM (inactive)
GI50 [17]: > 100 µM
GI50 [18]: > 100 µM (inactive)
GI50 [19]: > 100 µM (inactive)
GI50 [20]: > 100 µM (inactive)

OC(c1ccccc1)(c1ccccc1)c1ccccn1
GI50 [1]: > 100 µM (inactive)
GI50 [3]: > 100 µM (inactive)
GI50 [4]: > 100 µM (inactive)
GI50 [5]: > 100 µM (inactive)
GI50 [6]: > 100 µM (inactive)
GI50 [7]: > 100 µM (inactive)
GI50 [10]: > 100 µM (inactive)
GI50 [11]: > 100 µM (inactive)
GI50 [12]: 83 µM (inactive)
GI50 [13]: > 100 µM (inactive)
GI50 [14]: > 100 µM (inactive)
GI50 [16]: > 100 µM (inactive)
GI50 [17]: > 100 µM
GI50 [18]: > 100 µM (inactive)
GI50 [19]: 71.3 µM (inactive)
GI50 [20]: > 100 µM (inactive)
